Converted amounts (≈) assume the structure as drawn. Where a name gives a salt, the structure may show the parent alone. Read-outs that look alike come from different tables or passages of the source. Marks after values point to notes of the source that are not given here.
Legend:
Format in all cases: cell-based
S. pneumoniae G9a = experiment: Rate of spontaneous resistance; details: 5 × MIC; * = colonies with increased MIC (4-8-fold) were isolated
S. aureus RN4220Bi^R = experiment: Rate of spontaneous resistance
Protocol: (§1) Determination of the Rates of Spontaneous Resistance to S. aureus
(§2) The spontaneous resistance rates for the compounds of the invention are determined as follows: the bacterial microbes are cultivated in 30 ml of a minimal medium (18.5 mM Na2HPO4, 5.7 mM KH2PO4, 9.3 mM NH4Cl, 2.8 mM MgSO4, 17.1 mM NaCl, 0.033 μg/ml thiamine hydrochloride, 1.2 μg/ml nicotinic acid, 0.003 μg/ml biotin, 1% glucose, 25 μg/ml of each proteinogenic amino acid with the addition of 0.4% BH broth) at 37° C. overnight, centrifuged at 6000×g for 10 min and resuspended in 2 ml of phosphate-buffered physiological NaCl solution (about 2×10^9 microbes/ml). […] The resulting colonies (cfu) are counted.

S. aureus RN4220 = experiment: Rate of spontaneous resistance
Protocol: as §1, §2

S. aureus 133 = experiment: Rate of spontaneous resistance
Protocol: as §1, §2

E. faecium L4001 [1] = experiment: MIC, alternative method: agar dilution test with 20% defibrinated horse blood; details: Enterococcus faecium
Protocol: (§3) Alternative Method for Determining the Minimum Inhibitory Concentration (MIC)
(§4) The minimum inhibitory concentration (MIC) is the minimum concentration of an antibiotic with which the growth of a test microbe is inhibited over 18-24 h. The inhibitor concentration can be determined by standard microbiological methods using modified medium in an agar dilution test (see, for example, the National Committee for Clinical Laboratory Standards. Methods for dilution antimicrobial susceptibility tests for bacteria that grow aerobically; approved standard-fifth edition. NCCLS document M7-A5 [ISBN 1-56238-394-9]. NCCLS, 940 West Valley Road, Suite 1400, Wayne, Pa. 19087-1898 USA, 2000). The bacterial microbes are cultivated on 1.5% agar plates containing 20% defibrinated horse blood. The test microbes, which are incubated on Columbia blood agar plates (Becton-Dickinson) overnight, are diluted in PBS, adjusted to a microbe count of about 5×10^5 microbes/ml and placed as drops (1-3 μl) on test plates. The test substances contain various dilutions of the test substances (1:2 dilution stages). The cultures are incubated at 37° C. in the presence of 5% CO2 for 18-24 hours.
(§5) The lowest concentration of each substance at which no visible bacterial growth occurs is defined as the MIC and is reported in μg/ml.

S. aureus E33 = experiment: as above; details: Staphylococcus aureus
Protocol: as §3, §4, §5

S. aureus T17 [2] = experiment: as above; details: Staphylococcus aureus
Protocol: as §3, §4, §5

E. faecalis ICB 27159 = experiment: Rate of spontaneous resistance; details: * = colonies with increased MIC (4-8-fold) were isolated
E. faecium L4001 [3] = experiment: Rate of spontaneous resistance
S. aureus T17 [4] = experiment: Rate of spontaneous resistance; details: 10 × MIC
Protocol: as §1, §2

[5] = L4001, read-out: MIC E. faecium L4001
[6] = E33, read-out: MIC S. aureus E33
[7] = T17, read-out: MIC S. aureus T17

Row | SMILES | Rate of spontaneous resistance S. pneumoniae G9a (S. pneumoniae G9a) | Rate of spontaneous resistance S. aureus RN4220Bi^R (S. aureus RN4220Bi^R) | Rate of spontaneous resistance S. aureus RN4220Bi^R (S. aureus RN4220Bi^R; 10 × MIC) | Rate of spontaneous resistance S. aureus RN4220 (S. aureus RN4220) | Rate of spontaneous resistance S. aureus RN4220 (S. aureus RN4220; 10 × MIC) | Rate of spontaneous resistance S. aureus 133 (S. aureus 133) | Rate of spontaneous resistance S. aureus 133 (S. aureus 133; 10 × MIC) | MIC (E. faecium L4001 [1]; [5]) | MIC (S. aureus E33; [6]) | MIC (S. aureus T17 [2]; [7]) | Rate of spontaneous resistance E. faecalis ICB 27159 (E. faecalis ICB 27159; 5 × MIC) | Rate of spontaneous resistance E. faecalis ICB 27159 (E. faecalis ICB 27159; 10 × MIC) | Rate of spontaneous resistance E. faecium L4001 (E. faecium L4001 [3]; 5 × MIC) | Rate of spontaneous resistance E. faecium L4001 (E. faecium L4001 [3]; 10 × MIC) | Rate of spontaneous resistance S. aureus T17 (S. aureus T17 [4]) | MIC (E. faecium L4001 [1]; L4001, Table B, agar dilution, 20% defibrinated horse blood, read-out: MIC E. faecium L4001) | MIC (S. aureus E33; E33, Table B, agar dilution, 20% defibrinated horse blood, read-out: MIC S. aureus E33) | MIC (S. aureus T17 [2]; T17, Table B, agar dilution, 20% defibrinated horse blood, read-out: MIC S. aureus T17)
1 | NCCC[C@@H]1NC(=O)[C@@H](N)Cc2cc(ccc2O)-c2ccc(O)c(c2)C[C@@H](C(=O)NCCN)NC1=O [Example 6, (8S,11S,14S)-14-amino-N-(2-aminoethyl)-11-(3-aminopropyl)-5,17-dihydroxy-10,1 3-dioxo-9,12-diazatricyclo[14.3.1.1^2,6]henicosa-1(20),2(21),3,5,16,18-hexaene-8-carboxamide] | <4 × 10^−8* | <8 × 10^−9* | <4 × 10^−9 | <6 × 10^−9* | <6 × 10^−9 | <8 × 10^−9* | <8 × 10^−9 | 8 µg/mL (≈ 16 µM) | 0.5 µg/mL (≈ 1 µM) | 2 µg/mL (≈ 4.01 µM) | <4 × 10^−9* | <4 × 10^−10* | 4 × 10^−8 | <4 × 10^−9 | – | – | – | –
2 | CN1C(=O)[C@H](C[C@@H](O)CN)NC(=O)[C@@H](N)Cc2cc(ccc2O)-c2ccc(O)c(c2)C[C@H]1C(=O)NCCN [Example 1, (8S,11S,14S)-14-amino-N-(2-aminoethyl)-11-[(2R)-3-amino-2-hydroxypropyl]-5,17-dihydroxy-9-methyl-10,13-dioxo-9,12-diazatricyclo[14.3.1.1.^2,6]henicosa-1(20),2(21),3,5,16,18-hexaene-8-carboxamide, trihydrochloride] | – | – | <6 × 10^−8 | – | <6 × 10^−8 | – | <4 × 10^−8 | 16 µg/mL | 4 µg/mL | 4 µg/mL | – | – | – | – | <4 × 10^−8 | – | – | –
3 | NC[C@H](O)C[C@@H]1NC(=O)[C@@H](N)Cc2cc(ccc2O)-c2ccc(O)c(c2)C[C@@H](C(=O)O)NC1=O [Example 20A, 14(S)-Amino-1(S)-(3-amino-2(R)-hydroxypropyl)-5,17-dihydroxy-10,13-dioxo-9,12-diazatricyclo[14.3.1.1^2,6]henicosa-1(19),2,4,6(21),16(20),17-hexaene-8(S)-carboxylic acid dihydrochloride, reference compound] | – | – | – | – | – | – | <1.7 × 10^−6 | – | – | – | – | 4.1 × 10^−6 | – | – | – | 0.5 µg/mL | < 0.03 µg/mL | > 32 µg/mL
